The results in this text go back to US11485728B2, “Small molecules for the treatment of autoimmune diseases and cancer” (Athos Therapeutics, Inc., priority 2020, dated 2022).

The test system of one series is HCT-116. Kind of series: HCT-116 cell viability (Real-Time-Glo). The class given is cell-based. The note with it: Homo sapiens, 72 hr, read-out: IC50, Cell line: HCT-116. Here is the method: (§1) To determine the plating density for cell viability assays, for each cell line, cells were counted and diluted to final densities of 2.5, 5, 10 and 20 thousand per 100 μl of their respective growth media per well in 96 well plates. A Promega Real-Time-Glo cell viability kit was used to determine the optimal concentration for cell plating so that each cell line would be within the linear part of its growth curve after 72 hrs in culture. […] Test compounds were then added at different concentrations for the creation of six-point curve and cell density was determined using the Promega Real-Time-Glo cell viability kit after 24, 48, and 72 hrs in culture.

The test system of another series is 5637. Put plainly: 5637 bladder cancer cell viability (Real-Time-Glo). The format is cell-based. The note with it: 72 hr; read-out: IC50, Cell line: 5637. Here is the method:
(§2) To determine the plating density for cell viability assays, for each cell line, cells were counted and diluted to final densities of 2.5, 5, 10 and 20 thousand per 100 μl of their respective growth media per well in 96 well plates. A Promega Real-Time-Glo cell viability kit was used to determine the optimal concentration for cell plating so that each cell line would be within the linear part of its growth curve after 72 hrs in culture. For the determination of test compound IC50s different cancer cell lines were plated in 96 well plates in the pre-determined optimal density for each cell line. Test compounds were then added at different concentrations for the creation of six-point curve and cell density was determined using the Promega Real-Time-Glo cell viability kit after 24, 48, and 72 hrs in culture. Test compound 72 hr IC50s were calculated using the AAT Bioquest IC50 calculator.
The following compounds are evaluated for their ability to block cancer cell growth in colon (HT-29), liver (HepG2), pancreatic (MiaPaca-2) and bladder (5637) cancer cell lines. Specifically, the Promega Real-Time-Glo cell viability kit was used to determine the optimal concentration for cell plating so that each cell line would be within the linear part of its growth curve after 72 hrs in culture. For the determination of test compound IC50s different cancer cell lines are plated in 96 well plates in the pre-determined optimal density for each cell line. Test compounds are then added at different concentrations for the creation of six-point curve and cell density is determined using the Promega Real-Time-Glo cell viability kit after 24, 48, and 72 hrs in culture. Test compound 72 hr IC50s is calculated using the AAT Bioquest IC50 calculator.

Series [1] is described as follows: In-vitro half-life in human liver microsomes. The format is in vitro ADME. The settings on record: Human liver microsomes 0.5 mg/mL; 1 μg/mL drug; NRS; read-out: Metabolic Half-life. Here is the method:
(§3) In each of the species (human, rat, mouse) of liver matrix to be tested, a working concentration of 2 μg/mL was prepared of each test article from the 0.5 mg/mL DMSO stock solution by adding 3 μL of 0.5 mg/mL test article stock solution to 747 μL of the 1 mg/mL liver matrix. Incubation was performed at 37±2° C. with gentle, continuous mixing in shaking water bath in 2.0 mL-well capacity 96-Deepwell plates (96-DWP). Samples were retrieved in duplicate at the following time points: 0, 5, 10, 15, 30 and 60 minutes. The final mixture contained 1 μg/mL of drug and 0.5 mg/mL of liver matrix. First, 50 μL of test articles in liver matrix was added to the 96-DWP and pre-warmed the mixture in the 96-DWP for 2 minutes in the 37° C. water bath. The enzymatic reaction was started by the addition of 50 μL of the corresponding 2× NADPH regenerating system (NRS) cofactor solution to all sample wells and stopped by the addition of 300 μL of stop solution (acetonitrile containing 10 ng/mL Tolbutamide as an internal standard (I.Std.). The samples were agitated for 10 minutes and then centrifuged for 20 minutes at 4500 rpm. 25 μL of supernatant was diluted with 475 μL acetonitrile containing I. Std. into a new 96-DWPs for LC-MS/MS analysis.
(§4) Half-life calculations were generated and calculated by Graphpad Prism® software. The half-life of test compound was calculated based on the first-order reaction kinetics. The data was transformed to linear regression (y=log(y) where “y” axis represents the % compound remaining at any given time with respect to time 0 minutes; “x” axis represents time in minutes) in order to calculate the half-life.
(§5) A comparison of metabolic stability in time-course incubation experiments in varying species of liver can provide information of pharmacokinetic properties of drugs attributable to species-related differences in hepatic metabolism. The results of these experiments often assist in further applications such as assessing in vitro metabolite profiling and choosing relevant species for toxicology studies based on similarities relative to the metabolic stability to the human profile. For these experiments, the test compound was tested in parallel with a positive control, Dasatinab, in an enzymatic reaction solution of each species (human and rat) of liver microsomes containing a NADPH regenerating system (NRS). The final mixture contained 1 μg/mL of drug and 0.5 mg/mL of liver matrix. Incubations were performed at 37±2° C. with gentle, continuous mixing in shaking water bath in 96-Deep well plates. The stability of the test compound is monitored using fast, specific and sensitive LC/MS/MS analysis.
(In general: Liver microsomes are a subcellular fraction often used to study metabolism.)

Series [2] in a line: In-vitro half-life in mouse liver microsomes. The class given is in vitro ADME. The settings on record: Mouse liver microsomes 0.5 mg/mL; 1 μg/mL drug; NRS; read-out: Metabolic Half-life. Here is the method:
as §3, §4, §5

A further series concerns A-498. Put plainly: A-498 kidney cancer cell viability (Real-Time-Glo). The class given is cell-based. The settings on record: Homo sapiens, A498; 72 hr; read-out: IC50, Cell line: A-498. Here is the method: as §2
Series [3] relates to HT-29 colorectal cancer cells. Kind of series: HT-29 cell viability (Real-Time-Glo). The note with it: for growth of HT-29 colorectal cancer cells: luminescence at 72 h; for IC50: Homo sapiens, HT-29, 72 hr, read-out: IC50, Cell line: HT-29. The format is cell-based. Here is the method: Equal volume of 2× RealTime-Glo™ reagent (2 μl of MT Cell Viability Substrate 1,000×, and 2 μl of NanoLuc® Enzyme 1,000×, per 1 ml of media, Promega) was added to each well and cells were incubated at 37° C. Luminescence was evaluated at 72 h.
as §1
Specifically, the Promega Real-Time-Glo cell viability kit was used to determine the optimal concentration for cell plating so that each cell line would be within the linear part of its growth curve after 72 hrs in culture. […] Test compounds are then added at different concentrations for the creation of six-point curve and cell density is determined using the Promega Real-Time-Glo cell viability kit after 24, 48, and 72 hrs in culture. […]

In the case of `COc1cc2c(NC3CCOCC3)nc(N3CCCC3)nc2cc1OCCCN1CCCC1` [Compound 164, 6-methoxy-2-(pyrrolidin-1-yl)-7-(3-(pyrrolidin-1-yl)propoxy)-N-(tetrahydro-2H-pyran-4-yl)quinazolin-4-amine], the half-inhibitory concentration (IC50) (commonly the concentration needed to halve the response being measured) lay in the range of 1 to 5 µM in the series with HCT-116 and 5 to 10 µM in the series with 5637. The half-life at 1 μg/mL in series [1] and in series [2] was greater than 1 h each time.

`COc1cc2c(NC3CCN(C(C)C)CC3)nc(N3CCC3)nc2cc1OCCCN1CCCC1` [Compound 234, 2-(azetidin-1-yl)-N-(1-isopropylpiperidin-4-yl)-6-methoxy-7-(3-(pyrrolidin-1-yl)propoxy)quinazolin-4-amine]: the IC50 with HCT-116 fell in the range of 1 to 5 µM; with 5637, 5 to 10 µM; in the series on A-498, 5 to 10 µM. Also, the half-life at 1 μg/mL in series [1] and in series [2] was greater than 1 h in each case.

For `COCCN1CCC(Nc2nc(N3CCC(F)(F)CC3)nc3cc(OCCCN4CCCC4)c(OC)cc23)CC1` [Compound 3, 2-(4,4-difluoropiperidin-1-yl)-6-methoxy-N-(1-(2-methoxyethyl)piperidin-4-yl)-7-(3-(pyrrolidin-1-yl)propoxy)quinazolin-4-amine], the “growth of HT-29 colorectal cancer cells” value in series [3] is on record as “potent anti-cancer activity”. Moreover, the values for the IC50 in the series on HCT-116, in the series with 5637 and in the series with A-498 were 1 to 5 µM, 5 to 10 µM and 5 to 10 µM, respectively. The half-life at 1 μg/mL in series [1] and in series [2] was greater than 1 h each time.

For the compound `COc1cc2c(NC3CCN(C(C)C)CC3)nc(N3CCC(F)(F)CC3)nc2cc1OCCCN1CCCC1` [Compound 400, 2-(4,4-difluoropiperidin-1-yl)-N-(1-isopropylpiperidin-4-yl)-6-methoxy-7-(3-(pyrrolidin-1-yl)propoxy)quinazolin-4-amine, reference compound], the results for the IC50 (in series [3]; in the series on A-498) were 5 to 10 µM and 10 to 20 µM, respectively. Also, the half-life at 1 μg/mL in series [1] and in series [2] was greater than 1 h throughout.

As for `COc1cc2c(NC3CCN(C(C)C)CC3)nc(C#N)nc2cc1OCCCN1CCCC1` [Compound 235, 4-((1-isopropylpiperidin-4-yl)amino)-6-methoxy-7-(3-(pyrrolidin-1-yl)propoxy)quinazoline-2-carbonitrile], the concentration for half-maximal inhibition (IC50) in the series on HCT-116 lay in the range of 1 to 5 µM; with 5637, 5 to 10 µM; in the series on A-498 it was 5 to 10 µM. The half-life at 1 μg/mL in series [1] and in series [2] was greater than 1 h throughout.

As for `COc1cc2c(NC3CCN(C(C)C)CC3)nc(-n3ccnc3)nc2cc1OCCCN1CCCC1` [Compound 156, 2-(1H-imidazol-1-yl)-N-(1-isopropylpiperidin-4-yl)-6-methoxy-7-(3-(pyrrolidin-1-yl)propoxy)quinazolin-4-amine], the IC50 in series [3] is 1 to 5 µM; in the series on HCT-116, 1 to 5 µM; in the series on 5637 it was 1 to 5 µM; in the series on A-498, 5 to 10 µM. The half-life (commonly the time in which the quantity being followed falls by half) at 1 μg/mL in series [1] was greater than 1 h; in series [2], 0.988 h.

In the case of `COc1cc2c(Nc3ccncc3)nc(N3CCC(F)(F)CC3)nc2cc1OCCCN1CCCC1` [Compound 7, 2-(4,4-difluoropiperidin-1-yl)-6-methoxy-N-(pyridin-4-yl)-7-(3-(pyrrolidin-1-yl)propoxy)quinazolin-4-amine], the IC50 (in series [3]; in the series on HCT-116; in the series with 5637; with A-498) was 1 to 5 µM each time. The half-life at 1 μg/mL in series [1] is greater than 1 h; in series [2], 0.727 h.

As for `COc1cc2c(NC3CCOCC3)nc(N3CCC3)nc2cc1OCCCN1CCCC1` [Compound 174, 2-(azetidin-1-yl)-6-methoxy-7-(3-(pyrrolidin-1-yl)propoxy)-N-(tetrahydro-2H-pyran-4-yl)quinazolin-4-amine], the IC50 in the series on HCT-116 lay within 1 to 5 µM; in the series with 5637 it was 10 to 20 µM. Also, the half-life at 1 μg/mL in series [1] and in series [2] was greater than 1 h in each case.

Consider `COCCNc1nc(N2CCC(F)(F)CC2)nc2cc(OCCCN3CCCC3)c(OC)cc12` [Compound 4, 2-(4,4-difluoropiperidin-1-yl)-6-methoxy-N-(2-methoxyethyl)-7-(3-(pyrrolidin-1-yl)propoxy)quinazolin-4-amine], for which the results for the IC50 (in series [3]; in the series with HCT-116; with 5637) were 1 to 5 µM, 1 to 5 µM and 10 to 20 µM, respectively. Besides, the “growth of HT-29 colorectal cancer cells” value in series [3] was “potent anti-cancer activity”. Besides, the half-life at 1 μg/mL in series [1] and in series [2] was greater than 1 h throughout.

Take `COc1cc2c(NC3CCOCC3)nc(N3CCC(F)(F)CC3)nc2cc1OCCCN1CCCC1` [Compound 2, 2-(4,4-difluoropiperidin-1-yl)-6-methoxy-7-(3-(pyrrolidin-1-yl)propoxy)-N-(tetrahydro-2H-pyran-4-yl)quinazolin-4-amine]: the concentration for half-maximal inhibition (IC50) in series [3] was 1 to 5 µM; with 5637, 10 to 20 µM. In addition, the “growth of HT-29 colorectal cancer cells” value in series [3] is reported as “potent anti-cancer activity”. Moreover, the half-life at 1 μg/mL in series [1] and in series [2] was greater than 1 h in each case.
